Results from patent US20050009886A1, “1,4-Dihydropyridine derivative with a guaiacoxypropanolamine and/or phenoxypropanolamine moiety” (priority 1998, published 2005).

Tests used:
β2-adrenoceptor = target: T1, β2-adrenoceptor (Cavia porcellus, UniProt Q8K4Z4); test: Direct effect (intrinsic sympathomimetic activity) on reserpine pretreated isolated tracheal; design: species or system guinea pig
T1 construct: a portion of tracheal approximately 4 cm long was removed; from tissue; host or cells: isolated trachea of reserpine-pretreated guinea pigs
Procedure: 18˜24 hours before the experiment, 5 mg/kg of reserpine was injected via abdominal cavity to remove all endogenous catecholamines. Prior experiment, guinea pigs were sacrificed, the tracheal was immediately removed and placed in Kreb's solution aerated with air mixture and maintained at room temperature of 22˜25° C. […] Then the tissue was repeatedly washed with Kreb's solution.

thoracic aorta = test: Isolated thoracic aorta contraction caused by 75 mM KCl; design: species or system Wistar rat
Procedure: After sacrificing Wistar rat of weight between 300-500 gm, the thoracic aorta was immediately removed and placed in cold Kreb's solution. The fatty connecting tissue surrounding the vessel wall was removed and the thoracic aorta was cut into rings of length 5 mm. The two ends of each ring was pieced and fixed with “Z” shaped platinum wires. […] The sample was given 1 gm of tension and equilibrated for 60 minutes before the following experiments were carried out:
After thoracic aorta had reached equilibrium in the tissue trough, the normal Kreb's solution in the trough was replaced with 75 mM KCl solution to induce vasoconstriction. When the results had been recorded for at least 35 minutes, the aorta was repeatedly rinsed with normal Kreb's solution. After the aorta had re-equilibrated and at least rested for 60 minutes, different concentrations (10^−8, 10^−7, 10^−6, and 10^−5M) of compound 1 were separately added. 30 minutes later, 75 mM KCl was added again to induce vasoconstriction. This method was used to compare the differences in contraction induced by 75 mM KCl on thoracic aorta pre-treated and non-treated with compound 1.
0.1 μM of BayK8644 was first added into the tissue trough. 10 minutes later, 75 mM of concentrated Potassium solution was added to induce thoracic aorta contraction. When vasoconstriction had reached stability, different concentrations of (10^−8, 10^−7, 10^−6, and 10^−5M) compound 1 were separately added. The effects of aorta contraction induced by concentrated Potassium solution were observed.

T1 sequence (Q8K4Z4 whole entry): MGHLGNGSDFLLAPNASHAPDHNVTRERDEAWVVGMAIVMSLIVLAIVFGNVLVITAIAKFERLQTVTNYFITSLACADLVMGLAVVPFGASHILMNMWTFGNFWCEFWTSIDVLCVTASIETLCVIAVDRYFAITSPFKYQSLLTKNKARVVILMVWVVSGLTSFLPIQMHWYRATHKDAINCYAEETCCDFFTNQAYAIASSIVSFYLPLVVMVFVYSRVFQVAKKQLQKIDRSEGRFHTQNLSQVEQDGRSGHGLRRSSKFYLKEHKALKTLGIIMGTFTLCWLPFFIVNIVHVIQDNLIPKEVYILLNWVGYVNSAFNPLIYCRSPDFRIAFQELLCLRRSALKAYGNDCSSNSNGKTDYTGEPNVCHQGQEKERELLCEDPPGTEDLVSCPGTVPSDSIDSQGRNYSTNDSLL

SMILES: COC(=O)C1=C(C)NC(C)=C(C(=O)OC)C1c1ccc(OCC(O)CNC(C)(C)C)c(OC)c1 (centres unmarked) [Compound 1]
- tracheal relaxation after pretreatment with ICI118, 551 (β2-adrenoceptor; ICI 118, 551 10^−8, 10^−9, 10^−10M for 30 minutes (nifedipine: 10^−8 M)): concentration-dependently shifting parallel to the right
- direct tracheal relaxation effect (β2-adrenoceptor; cumulative 10^−10˜3×10^−6 M, reserpine pretreated tracheal): dose-dependant tracheal relaxation effect
- effect on 75 mM KCl contracted thoracic aorta (thoracic aorta; 10^−8, 10^−7, 10^−6, and 10^−5 M): dose-dependant vasoconstriction
- Aorta Relaxation (thoracic aorta; 10^−8M, 75 mM KCl contraction): 30 ± 3%
- effect of 0.1 μM BayK8644 pre-treatment on the aorta effect (thoracic aorta; BayK8644 0.1 μM 10 minutes, then concentrated Potassium solution): would affect vasoconstriction function
